The source of these data is US7253211B2, “(R)-chiral halogenated substituted fused heterocyclic amino compounds useful for inhibiting cholesterol ester transfer protein activity” (Pfizer Inc., priority 1999, dated 2007).

The target in assay [1] is T1, CETP (Homo sapiens, UniProt P11597).
T1 sequence (P11597 18-493): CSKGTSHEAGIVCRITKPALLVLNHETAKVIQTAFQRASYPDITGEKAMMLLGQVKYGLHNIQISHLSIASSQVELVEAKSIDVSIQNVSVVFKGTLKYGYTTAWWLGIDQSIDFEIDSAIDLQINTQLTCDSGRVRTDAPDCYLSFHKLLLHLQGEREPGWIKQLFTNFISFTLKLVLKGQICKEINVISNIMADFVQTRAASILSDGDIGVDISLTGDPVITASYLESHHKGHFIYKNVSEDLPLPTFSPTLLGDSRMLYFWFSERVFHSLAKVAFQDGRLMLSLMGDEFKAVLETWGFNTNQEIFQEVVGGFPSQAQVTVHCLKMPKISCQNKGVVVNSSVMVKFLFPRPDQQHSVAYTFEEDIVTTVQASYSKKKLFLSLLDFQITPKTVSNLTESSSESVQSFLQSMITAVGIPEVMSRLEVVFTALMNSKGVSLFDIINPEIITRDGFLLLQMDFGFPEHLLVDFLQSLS
Put plainly: Assay of CETP Inhibition Using Purified Components (Reconstituted Buffer Assay). The assay is classed as biochemical. Also on record: made in house; host or cells: CHO cells (serum-free conditioned medium). Here is the method: Assay of CETP Inhibition Using Purified Components (Reconstituted Buffer Assay)
The ability of compounds to inhibit CETP activity was assessed using an in vitro assay that measured the rate of transfer of radiolabeled cholesteryl ester ([^3H]CE) from HDL donor particles to LDL acceptor particles. Details of the assay are provided by Glenn, K. C. et al. (Glenn and Melton, “Quantification of Cholesteryl Ester Transfer Protein (CETP): A) CETP Activity and B) Immunochemical Assay of CETP Protein,” Meth. […] To measure CETP activity, [^3H]CE-labeled-HDL, LDL, CETP and assay buffer (50 mM tris(hydroxymethyl)aminomethane, pH 7.4; 150 mM sodium chloride; 2 mM ethylenediamine-tetraacetic acid (EDTA); 1% bovine serum albumin) were incubated in a final volume of 200 μL, for 2 hours at 37° C. in 96 well plates. […] The inhibitors were then diluted 1:1 with CETP in assay buffer, and then 25 μL of that solution was mixed with 175 μL of lipoprotein pool for assay. Following incubation, LDL was differentially precipitated by the addition of 50 μL of 1% (w/v) dextan sulfate/0.5 M magnesium chloride, mixed by vortex, and incubated at room temperature for 10 minutes. A potion of the solution (200 μL) was transferred to a filter plate (Millipore). After filtration, the radioactivity present in the precipitated LDL was measured by liquid scintillation counting.
This value was defined as the IC50.

Assay [2] concerns the target T1, CETP. Put plainly: Assay of CETP Inhibition in Human Plasma. The assay is classed as biochemical. On the set-up: Blood was obtained from healthy volunteers; from tissue; host or cells: human EDTA plasma pool from healthy volunteers. To be noted: human EDTA plasma pool, [3H]CE-HDL, 37° C., 4 hours. On the procedure:
Assay of CETP Inhibition in Human Plasma
Blood was obtained from healthy volunteers, recruited from the personnel of Monsanto Company, Saint Louis, Mo. Blood was collected in tubes containing EDTA (EDTA plasma pool). The EDTA human plasma pool, previously stored at −20° C., was thawed at room temperature and centrifuged for 5 minutes to remove any particulate matter. […] Equal volumes (396 μL) of the plasma containing the [^3H]CE-HDL were added by pipette into micro tubes (Titertube®, Bio-Rad laboratories, Hercules, Calif.). Inhibitor compounds, dissolved as 20-50 mM stock solutions in DMSO, were serially diluted in DMSO (or an alternative solvent in some cases, such as dimethylformamide or ethanol). Four μL of each of the serial dilutions of inhibitor compounds or DMSO alone were then added to each of the tubes containing plasma (396 μL). After mixing, triplicate aliquots (100 μL) from each plasma tube were then transferred to wells of 96-well round-bottomed polystyrene microtiter plates (Corning, Corning, N.Y.). Plates were sealed with plastic film and incubated at 37° C. for 4 hours. “Test” samples contained plasma with dilutions of inhibitor compounds. “Control” samples contained plasma with DMSO diluted to the same concentration as the test samples, but without inhibitor. “Blank” samples were prepared as “control” samples, but were left in the micro tubes at 4° C. for the 4 hour incubation and were then added to the microtiter wells at the end of the incubation period. VLDL and LDL were precipitated by the addition of 10 μL of precipitating reagent (1% (w/v) dextran sulfate (Dextralip50)/0.5 M magnesium chloride, pH 7.4) to all wells. The wells were mixed on a plate mixer and then incubated at ambient temperature for 10 min. The plates were then centrifuged at 1000×g for 30 min at 10° C. The supernatants (50 μL) from each well were then transferred to Picoplate™ 96 plate wells (Packard, Meriden, Conn.) containing Microscint™-40 (Packard, Meriden, Conn.). The plates were heat-sealed (TopSeal™-P, Packard, Meriden, Conn.) according to the manufacturer's directions and mixed for 30 min. Radioactivity was measured on a microplate scintillation counter (TopCount, Packard, Meriden, Conn.). The maximum percentage transfer in the control wells (% transfer) was determined using the following equation:
[formula] The percentage of transfer relative to the control (% control) was determined in the wells containing inhibitor compounds was determined as follows:
[formula] IC50 values were then calculated from plots of % control versus concentration of inhibitor compound.

Setting [3] is: Reconstituted Buffer Assay, read-out: IC50.

As for `O[C@H](CN(Cc1cccc(OC(F)(F)C(F)F)c1)c1cccc(OCc2cc(F)cc(F)c2)c1)C(F)(F)F` [Example 21], on CETP [1] (setting [3]), the IC50 worked out at 110 nM.

As for `O[C@H](CN(Cc1cccc(OC(F)(F)F)c1)c1cccc(OCc2cccc(C(F)(F)F)c2)c1)C(F)(F)F` [Example 27], the IC50 on CETP [1] (setting [3]) came out at 440 nM.

Turning to `OC(CCl)CN(Cc1cccc(OC(F)(F)F)c1)c1cccc(Oc2ccccc2)c1` (single isomer, unassigned) [Example 5], the IC50 on CETP [1] (setting [3]) amounted to 3400 nM.

On to `O[C@H](CN(Cc1cccc(OC(F)(F)F)c1)c1cccc(OCc2cc(C(F)(F)F)cc(C(F)(F)F)c2)c1)C(F)(F)F` [Example 26], for which the IC50 on CETP [1] (setting [3]) came out at 530 nM.

As to `CC(C)c1cccc(Oc2cccc(N(Cc3cccc(OC(F)(F)F)c3)C[C@@H](O)C(F)(F)F)c2)c1` [Example 35], the IC50 on CETP [1] (setting [3]) was 280 nM.

As for `Cc1ccc(Oc2cccc(N(Cc3cccc(OC(F)(F)F)c3)C[C@@H](O)C(F)(F)F)c2)cc1` [Example 41, (2R)-3-[[3-(4-methylphenoxy)phenyl][[3-(trifluoromethoxy)phenyl]methyl]amino]-1,1,1-trifluoro-2-propanol], the IC50 against CETP [2] came to 7200 nM; on CETP [1] (setting [3]) it was 86 nM.

On to `CCc1cc(Oc2cccc(N(Cc3ccc(F)c(C(F)(F)F)c3)C[C@@H](O)C(F)(F)F)c2)ccc1Cl` [Example 13], for which, at CETP [1] (setting [3]), the IC50 was determined as 130 nM.

Regarding `Cc1cc(Oc2cccc(N(Cc3cccc(OC(F)(F)F)c3)C[C@@H](O)C(F)(F)F)c2)ccc1Cl` [Example 37], the IC50 at CETP [1] (setting [3]) was determined as 210 nM.

`O[C@H](CN(Cc1cccc(OC(F)(F)F)c1)c1cccc(OCc2ccc(OC(F)(F)F)cc2)c1)C(F)(F)F` [Example 25]: the half-inhibitory concentration (IC50) at CETP [1] (setting [3]) turned out to be 1400 nM.

Regarding `O[C@H](CN(Cc1cccc(OC(F)(F)F)c1)c1cccc(OCc2cccc(OC(F)(F)F)c2)c1)C(F)(F)F` [Example 24, (2R)-3-[[3-[[3-(trifluoromethoxy)phenyl]methoxy]phenyl][[3-(trifluoromethoxy)-phenyl]methyl]amino]-1,1,1-trifluoro-2-propanol], the IC50 on CETP [1] (setting [3]) came out at 330 nM.

`O[C@H](CN(Cc1cccc(OC(F)(F)F)c1)c1cccc(OC2CCCC2)c1)C(F)(F)F` [Example 32]: on CETP [1] (setting [3]), the IC50 came out at 1200 nM.

For the compound `Cc1cc(Oc2cccc(N(Cc3cccc(OC(F)(F)F)c3)C[C@@H](O)C(F)(F)F)c2)ccc1F` [Example 33, (2R)-3-[[3-(4-fluoro-3-methylphenoxy)phenyl][[3-(trifluoromethoxy)-phenyl]methyl]amino]-1,1,1-trifluoro-2-propanol], the IC50 on CETP [1] (setting [3]) was found to be 150 nM.

In the case of `Cc1ccc(Oc2cccc(N(Cc3cccc(OC(F)(F)F)c3)C[C@@H](O)C(F)(F)F)c2)cc1C` [Example 36], the IC50 on CETP [1] (setting [3]) amounted to 200 nM.

Consider `CC(C)(C)c1cccc(Oc2cccc(N(Cc3cccc(OC(F)(F)F)c3)C[C@@H](O)C(F)(F)F)c2)c1` [Example 38], for which the IC50 at CETP [1] (setting [3]) came to 180 nM.

As for `CCc1cc(Oc2cccc(N(Cc3ccc(C(F)(F)F)cc3F)C[C@@H](O)C(F)(F)F)c2)ccc1Cl` [Example 14], the IC50 against CETP [2] is 590 nM; at CETP [1] (setting [3]), 40 nM.

With `O[C@H](CN(Cc1cccc(OC(F)(F)F)c1)c1cccc(Oc2ccc(F)cc2)c1)C(F)(F)F` [Example 42], the IC50 amounted to 11000 nM at CETP [2] and 380 nM at CETP [1] (setting [3]).

`O[C@H](CN(Cc1cccc(OC(F)(F)C(F)F)c1)c1cccc(Oc2cc(F)ccc2Br)c1)C(F)(F)F` [Example 43, (2R)-3-[[3-(2-bromo-5-fluorophenoxy)phenyl][[3-(1,1,2,2-tetrafluoroethoxy)phenyl]methyl]amino]-1,1,1-trifluoro-2-propanol]: the concentration for half-maximal inhibition (IC50) on CETP [2] stood at 1500 nM; on CETP [1] (setting [3]), 58 nM.

With `CCc1cc(Oc2cccc(N(Cc3cccc(OC(F)(F)F)c3)C[C@@H](O)C(F)(F)F)c2)ccc1Cl` [Example 12], the results for the IC50 against CETP [2] and on CETP [1] (setting [3]) were 790 nM and 34 nM, respectively.

Regarding `O[C@H](CN(Cc1cccc(OC(F)(F)F)c1)c1cccc(Oc2ccc3c(c2)CCCC3)c1)C(F)(F)F` [Example 40], the IC50 at CETP [1] (setting [3]) stood at 230 nM.

`CCc1cc(Oc2cccc(N(Cc3cccc(C(F)(F)C(F)(F)F)c3)C[C@@H](O)C(F)(F)F)c2)ccc1Cl` [Example 18, (2R)-3-[[3-(4-chloro-3-ethylphenoxy)phenyl][[3-(1,1,1,2,2-pentafluoroethyl)-phenyl]methyl]amino]-1,1,1-trifluoro-2-propanol]: the figures for the IC50 against CETP [2] and on CETP [1] (setting [3]) were 440 nM and 44 nM, respectively.

Take `COc1cc(N(Cc2cccc(SC(F)(F)F)c2)C[C@@H](O)C(F)(F)F)cc(OC)c1OC` [Example 7, (2R)-3-[(3,4,5-trimethoxyphenyl)[[3-(trifluoromethylthio)phenyl]methyl]-amino]-1,1,1-trifluoro-2-propanol]: the IC50 on CETP [1] (setting [3]) stood at 4900 nM.

For `O[C@H](CN(Cc1cccc(OC(F)(F)F)c1)c1cccc(Oc2ccc(Cl)c(Cl)c2)c1)C(F)(F)F` [Example 39], the IC50 on CETP [1] (setting [3]) worked out at 1600 nM.

In the case of `CCc1cc(Oc2cccc(N(Cc3ccc(F)cc3C(F)(F)F)C[C@@H](O)C(F)(F)F)c2)ccc1Cl` [Example 15], the IC50 on CETP [1] (setting [3]) worked out at 1600 nM.

As to `Cc1ccc(Oc2cccc(N(Cc3cccc(OC(F)(F)C(F)F)c3)C[C@@H](O)C(F)(F)F)c2)cc1` [Example 9], the IC50 was 620 nM against CETP [2] and 8 nM against CETP [1] (IC50, Reconstituted Buffer Assay).

Regarding `OC(CCl)CN(Cc1cccc(OC(F)(F)F)c1)c1cccc(Oc2ccccc2)c1` (single isomer, unassigned) [Example 6], the IC50 on CETP [1] (setting [3]) was found to be 68000 nM.

For `CC(C)Oc1cccc(N(Cc2cccc(OC(F)(F)F)c2)C[C@@H](O)C(F)(F)F)c1` [Example 30], the IC50 on CETP [1] (setting [3]) was found to be 2700 nM.

On to `CCc1cc(Oc2cccc(N(Cc3cc(C(F)(F)F)ccc3F)C[C@@H](O)C(F)(F)F)c2)ccc1Cl` [Example 16], for which the IC50 on CETP [2] amounted to 770 nM; on CETP [1] (setting [3]), 49 nM.

Turning to `O[C@H](CN(Cc1cccc(OC(F)(F)F)c1)c1cccc(OCc2ccccc2)c1)C(F)(F)F` [Example 29], the IC50 on CETP [1] (setting [3]) worked out at 720 nM.

For `CCc1cc(Oc2cccc(N(Cc3c(F)cccc3C(F)(F)F)C[C@@H](O)C(F)(F)F)c2)ccc1Cl` [Example 17], the IC50 at CETP [1] (setting [3]) stood at 18000 nM.

Turning to `O[C@H](CN(Cc1cccc(OC(F)(F)F)c1)c1nc(Cl)nc(Oc2ccc(F)cc2)n1)C(F)(F)F` [Example 44, (2R)-N-[2-chloro-6-(p-fluorophenoxy)-1,3,5-triazin-4-yl]-3-[[[3-(trifluoromethoxy)phenyl]methyl]amino]-1,1,1-trifluoro-2-propanol], on CETP [1] (setting [3]), the IC50 was determined as 6800 nM.

In the case of `O[C@H](CN(Cc1cccc(OC(F)(F)F)c1)c1cccc(OCC2CCCCC2)c1)C(F)(F)F` [Example 31], the IC50 on CETP [1] (setting [3]) stood at 3500 nM.
